The source of these data is patent US6780992B2, “Heterocyclic compounds, process for their preparation and pharmaceutical compositions containing them and their use in the treatment of diabetes and related diseases” (Dr. Reddy's Laboratories Ltd., priority 1996, dated 2004).

The subject of this assay is C57BL/KsJ-db/db mice. Briefly: blood sugar and triglycerides lowering in db/db mice, oral gavage daily for 6 days. In kind it is in vivo. The following applies: for inhibition in vivo at 30 mg/kg/day / inhibition in vivo at 10 mg/kg/day / inhibition in vivo at 100 mg/kg/day: Mus musculus, 144 h, 6 days treated; for inhibition in vivo at 30 mg/kg/day: dose 30 mg/kg/day oral gavage; for inhibition in vivo at 10 mg/kg/day: dose 10 mg/kg/day oral gavage; for inhibition in vivo at 100 mg/kg/day: dose 100 mg/kg/day oral gavage. The source says: Mutation in colonies of laboratory animals and different sensitivities to dietary regimens have made the development of animal models with non-insulin dependent diabetes associated with obesity and insulin resistance possible. Genetic models such as db/db and ob/ob (See Diabetes, (1982) 31(1): 1-6) in mice and fa/fa and zucker rats have been developed by the various laboratories for understanding the pathophysiology of disease and testing the efficacy of new antidiabetic compounds (Diabetes, (1983) 32: 830-838; Annu. Rep. Sankyo Res. Lab. (1994) 46: 1-57). The homozygous animals, C57 BL/KsJ-db/db mice developed by Jackson Laboratory, US, are obese, hyperglycemic, hyperinsulinemic and insulin resistant (J. Clin. Invest., (1990) 85: 962-967), whereas heterozygous are lean and normoglycemic. In db/db model, mouse progressively develops insulinopenia with age, a feature commonly observed in late stages of human type II diabetes when blood sugar levels are insufficiently controlled. The state of pancreas and its course vary according to the models. Since this model resembles that of type II diabetes mellitus, the compounds of the present invention were tested for blood sugar and triglycerides lowering activities.
Male C57BL/KsJ-db/db mice of 8 to 14 weeks age, having body weight range of 35 to 60 grams, procured from the Jackson Laboraotory, USA, were used in the experiment. The mice were provided with standard feed (National Institute of Nutrition, Hyderabad, India) and acidified water, ad libitum. The animals having more than 300 mg/dl blood sugar were used for testing. The number of animals in each group was 4.
The random blood sugar and triglyceride levels were measured by collecting blood (100 μl) through orbital sinus, using heparinised capillary in tubes containing EDTA which was centrifuged to obtain plasma. The plasma glucose and triglycerides levels were measured spectrometrically, by glucose oxidase and glycerol-3-PO4 oxidase/peroxidase enzyme (Dr. Reddy's Lab. Diagnostic Division Kits, Hyderabad, India) methods respectively. On 6th day the blood samples were collected one hour after administration of test compounds/vehicle for assessing the biological activity.
Test compounds were suspended on 0.25% carboxymethyl cellulose and administered to test group at a dose of 10 mg to 100 mg/kg through oral gavage daily for 6 days. The control group received vehicle (dose 10 ml/kg).
The blood sugar and triglycerides lowering activities of the test compound was calculated according to the formula: [formula]

[1] abbreviates: read-out: Maximum reduction in blood glucose level (%).
Where [2] appears, read: read-out: Triglyceride lowering (%).

Counter-ions that a name gives are not always drawn. Like-named read-outs stand apart in the source and are kept apart here.

As to `CCc1nc(C)cc(=O)n1CCOc1ccc(CC2SC(=O)NC2=O)cc1` (stereo not drawn) [Example 19, 5-[4-[2-[2-Ethyl-4-methyl-6-oxo-1,6-dihydro-1-pyrimidinyl]ethoxy]phenylmethyl]thiazolidine-2,4-dione], the inhibition in vivo at 30 mg/kg/day reads like this: under setting [1], 73%; under setting [2], 70%.
Regarding `CCc1nc2ccccc2c(=O)n1CCOc1ccc(CC2SC(=O)NC2=O)cc1` (stereo not drawn) [Example 24, 5-[4-[2-[2-Ethyl-4-oxo-3,4-dihydro-3-quinazolinyl]ethoxy]phenylmethyl]thiazolidine-2,4-dione], the inhibition in vivo at 10 mg/kg/day under setting [1] was 63% and the inhibition in vivo at 10 mg/kg/day under setting [2] amounted to 17%.
Turning to `Cc1nc2ncccc2c(=O)n1CCOc1ccc(/C=C2\SC(=O)NC2=O)cc1` [Example 11, 5-[4-[2-[8-Aza-2-methyl-4-oxo-3,4-dihydro-3-quinazolinyl]ethoxy]phenylmethylene]thiazolidine-2,4-dione], the inhibition in vivo at 30 mg/kg/day is, setting by setting: under setting [1], 32%; under setting [2], 42%.
For `CCCc1nc(C)cc(=O)n1CCOc1ccc(CC2SC(=O)NC2=O)cc1` (stereo not drawn) [Example 17, 5-[4-[2-[4-methyl-2-Propyl-6-oxo-1,6-dihydro-1-pyrimidinyl]ethoxy]phenylmethyl]thiazolidine-2,4-dione], the inhibition in vivo at 30 mg/kg/day came to 65% under setting [1] and 45% under setting [2].
Turning to `Cc1nc2ccccc2c(=O)n1CCOc1ccc(/C=C2\SC(=O)NC2=O)cc1` [Example 9, 5-[4-[2-[2-Methyl-4-oxo-3,4-dihydro-3-quinazolinyl]ethoxy]phenylmethylene]thiazolidine-2,4-dione], the inhibition in vivo at 30 mg/kg/day runs as follows: under setting [1], 46%; under setting [2], 35%.
With `CCc1nc(-c2ccccc2)cc(=O)n1CCOc1ccc(/C=C2\SC(=O)NC2=O)cc1` [Example 7, 5-[4-[2-[2-Ethyl-4phenyl-6-oxo-1,6-dihydro-1-pyrimidinyl]ethoxy]phenylmethylene]thiazolidine-2,4-dione], the inhibition in vivo at 100 mg/kg/day under setting [1] turned out to be 66% and the inhibition in vivo at 100 mg/kg/day under setting [2] stood at 35%.
On to `CCc1nc(-c2ccccc2)cc(=O)n1CCOc1ccc(CC2SC(=O)NC2=O)cc1` (stereo not drawn) [Example 21, 5-[4-[2-[2-Ethyl-4phenyl-6-oxo-1,6-dihydro-1-pyrimidinyl]ethoxy]phenylmethyl]thiazolidine-2,4-dione], for which the inhibition in vivo at 30 mg/kg/day reads like this: under setting [1], 64%; under setting [2], 76%.
Take `Cc1c(C)c2c(c(C)c1O)CCC(C)(COc1ccc(CC3SC(=O)NC3=O)cc1)O2` (stereo not drawn) [Troglitazone, reference compound]: the “reduction in random blood sugar level” value (100 mg/kg daily dose, on 6th day) is 28%.
Take `CCn1c(COc2ccc(/C=C3\SC(=O)NC3=O)cc2)nc2ccccc2c1=O` [Example 13, 5-[4-[[3-Ethyl-4-oxo-3,4-dihydro-2-quinazolinyl]methoxy]phenylmethylene]thiazolidine-2,4-dione]: the inhibition in vivo at 100 mg/kg/day runs as follows: under setting [1], 52%; under setting [2], 57%.
In the same order, the values of `CCc1nc(C)cc(=O)n1CCOc1ccc(/C=C2\SC(=O)NC2=O)cc1` [Example 3, 5-[4-[2-[2-Ethyl-4-methyl-6-oxo-1,6-dihydro-1-pyrimidinyl]ethoxy]phenylmethylene]thiazolidine-2,4-dione] are 67% and 12%.
In the case of `Cn1c(COc2ccc(CC3SC(=O)NC3=O)cc2)nc2ccccc2c1=O` (stereo not drawn) [Example 22, 5-[4-[[3-Methyl-4-oxo-3,4-dihydro-2-quinazolinyl]methoxy]phenylmethyl]thiazolidine-2,4-dione], the inhibition in vivo at 30 mg/kg/day under setting [1] worked out at 55% and the inhibition in vivo at 30 mg/kg/day under setting [2] was determined as 41%.
For the molecule `Cn1c(COc2ccc(CC3SC(=O)NC3=O)cc2)nc2ccccc2c1=O` (stereo not drawn) [Example 28, 5-[4-[[3-Methyl-4oxo-3,4-dihydro-2-quinazolinyl]methoxy]phenylmethyl]thiazolidine-2,4-dione sodium salt], the inhibition in vivo at 10 mg/kg/day is, setting by setting: under setting [1], 63%; under setting [2], 57%.
As to `CCc1c(C)nc(CC)n(CCOc2ccc(/C=C3\SC(=O)NC3=O)cc2)c1=O` [Example 6, 5-[4-[2-[2,Diethyl-4-methyl-6-oxo-1,6-dihydro-1-pyrimidinyl]ethoxy]phenylmethylene]thiazolidine-2,4-dione], the inhibition in vivo at 100 mg/kg/day by setting is: under setting [1], 41%; under setting [2], 31%.
For the molecule `Cn1c(COc2ccc(/C=C3\SC(=O)NC3=O)cc2)nc2ccccc2c1=O` [Example 12, 5-[4-[[3-Methyl-4-oxo-3,4-dihydro-2-quinazolinyl]methoxy]phenylmethylene]thiazolidine-2,4-dione], the inhibition in vivo at 100 mg/kg/day is, setting by setting: under setting [1], 71%; under setting [2], 57%.
